Source: US20150293109A1, “Fluorescent Chemical Dye for Visualization of Neural Stem Cell Symmetric and Asymmetric Division” (NATIONAL UNIVERSITY OF SINGAPORE, priority 2012, published 2015)
Where two headings read alike, the source gives them in different places.

Experiments:
Assay type in all cases: cell-based, mouse
[1] = test system: neurospheres; test: Dye retention in stained neurospheres after paraformaldehyde fixation and methanol extraction; details: 4% paraformaldehyde fixation followed by absolute methanol
Text: To determine if CDy5 forms a covalent bond with a protein, neurospheres stained with CDy5 and Hoechst 33342 were fixed using 4% paraformaldehyde followed by absolute methanol, which extracts organic dyes bound to their targets by noncovalent bonding. Both CDy5 and Hoechst signals were detected when observed after fixation with paraformaldehyde.

[2] = test system: dissociated neurosphere cells; test: Cytotoxicity assay: number of neurospheres grown in the presence of CDy5; details: for number of neurospheres: vehicle control 189±40
Protocol: (§1) To assess the effects of CDy5 and AC inhibitors on neurosphere formation, dissociated neurosphere cells were plated in 12-well culture plates at a density of 1,000 cells per well and cultures in the presence of 2 μM or 4 μM CDy5 or 0.01 to 10 μM AC inhibitor. For vehicle control, DMSO was added to a volume of 0.1%. The IC50 values were calculated using GraphPad Prism software.
(§2) Whether CDy5 exerts adverse effects on proliferation and differentiation of neural stem cells was also assessed using a neurosphere assay and multipotency test. For cytotoxicity assay, dissociated neurosphere cells were plated in triplicate in 6-well culture plates at a density of 1,000 cells per well and cultured in the presence of 2 μM or 4 μM CDy5. For vehicle control, 0.1% DMSO was added. After six days, the number of neurospheres was determined.

[3] = test system: neurospheres; test: Multipotency test of neurospheres generated in the presence of CDy5; details: neurospheres generated in the presence of CDy5, differentiated in 5% FBS
Protocol: as §2
The single neurospheres generated in the presence of CDy5 and normal medium were then plated onto glass coverslips coated with laminin and poly-L-lysine, cultured in medium containing 5% fetal bovine serum and allowed to undergo differentiation. The differentiated cells were immunostained using antibodies raised against markers of astrocyte, neuron and oligodendrocyte to classify the neurospheres into uni-, bi- and tri-potent depending on the number of positively stained cell types. The control group contained 55±6% unipotent neurospheres, 29±3% bipotent neurospheres and 16±3% tripotent neurospheres. The CDy5 group contained 49±1% unipotent neurospheres, 31±4% bipotent neurospheres and 20±3% tripotent neurospheres. These are very similar ratios of differentiation potential of neurospheres between control and CDy5 groups.

[4] = test system: neurosphere cells; test: Neurosphere assay of FACS-sorted CDy5bright and CDy5dim cells; details: FACS-sorted cells, 3,000 cells per well, six days of culture
Protocol: The method of detecting a stem cell in a sample can further comprise distinguishing between a neural stem cell and a differentiated neural cell in the sample. For example, when a mouse neurosphere was treated with CDy5, cytoplasmic staining of a distinct cell population within the neurosphere was observed (FIG. 1). The so-called CDy5^bright cells, those visible in the right panel of FIG. 1, emitted a signal that was substantially greater than the signal emitted by the so-called CDy5^dim cells. […] In the experiment described above, a cell was considered to be a CDy5^dim cell if no signal could be detected by fluorescence microscopy, or the signal detected was not substantially greater than background signal.
Dissociated neurosphere cells were cultured in a complete neurosphere culture medium containing 2 μM CDy5 for six days. They were dissociated for single cell imaging, live cell time-lapse imaging and clonal neurosphere imaging. […]
To examine the relationship between stemness and CDy5 staining, CDy5^bright and CDy5^dim neurosphere cells were sorted and collected by FACS and separately resuspended in neurosphere culture medium and plated in triplicate in […] culture plates at a density of 3,000 cells per well. […] After six days of culture, the number of neurospheres was counted manually under a microscope.

[5] = test system: neurospheres; test: Differentiation potential of neurospheres generated from CDy5bright and CDy5dim cells; details: mean±SD of duplicates
Protocol: Single neurospheres were plated onto glass coverslips coated with laminin and poly-L-lysine and cultured in bFGF/EGF-depleted neurosphere culture medium containing 5% fetal bovine serum. The differentiated cells were fixed with 4% paraformaldehyde and stained using primary antibodies: Tuj1 (Covance), glial fibrillary acidic protein (GFAP) (Dako), and O4 (Millipore), and appropriate secondary antibodies: Alexa Fluor 488 goat anti-mouse, Alexa Fluor 594 goat anti-mouse and Alexa Fluor 647 donkey anti-rabbit (Life Technologies), respectively. Tuj1 was used as a marker for neurons, GFAP was used as a marker for astrocytes and 04 was used as a marker for oligodendrocytes.
When the neurospheres were randomly differentiated in a medium containing only FBS, and immunostained against astrocyte, neuron and oligodendrocyte markers as described above, more numbers of neurospheres generated from CDy5^bright cells differentiated into all three types of cells than those from CDy5^dim cells. The CDy5^bright cells differentiated into 30±4% uni-potent cells, 26±1 bi-potent cells and 44±3 tri-potent cells. The CDy5^dim cells differentiated into 47±6 uni-potent cells, 22±1 bi-potent cells and 31±7 tri-potent cells. Data represent mean±standard deviation (SD) of duplicates.

[6] = test system: dissociated neurosphere cells; test: Neurosphere formation in the presence of AC inhibitors; details: 1,000 cells per well, 0.01 to 10 μM AC inhibitor, neurospheres counted, read-out: IC50 of inhibition of neurosphere formation
Protocol: Mouse brains harvested from E14.5 fetuses were digested with 0.25% trypsin/1mM EDTA solution for 30 minutes at 37° C. The tissues were triturated sequentially with a 10-mL pipette, a 1-mL pipette and a 0.2-mL pipette in medium containing 10% fetal bovine serum (FBS). The dissociated cells were washed 3 times with PBS by repeated resuspension and centrifugation, and filtered through a 40-μm strainer. The obtained single cells were plated in DMEM/F12 medium containing 10 ng/mL bFGF, 20 ng/mL EGF and B27 without vitamin A, and cultured for 7-10 days without changing the medium.
as §1
Ceranib-2 was developed as a ceramidase inhibitor by screening ˜50,000 small molecules and chemical optimization of a lead compound. It inhibits cancer cell growth in vivo as well as in vitro (21).

[7] = neurospheres from CDy5bright cells
[8] = neurospheres from CDy5dim cells

## CCOc1ccc(-c2nc3ccc(-c4nc5ccc(N6CCN(C)CC6)cc5[nH]4)cc3[nH]2)cc1 [Hoechst 33342]
[1]
  dye signal following methanol treatment: almost completely washed out

## CN(CCNC(=O)CCl)c1ccc2c(-c3cccc(CN4CCOCC4)c3)c3ccc(=N)cc-3oc2c1 [CDy5]
[2]; 2 μM and 4 μM CDy5, six days of culture
  number of neurospheres compared to vehicle-added control group: not significantly different
[2]; medium containing 2 μM CDy5
  number of neurospheres: 229±72
[2]; medium containing 4 μM CDy5
  number of neurospheres: 228±83
[3]; control 16±3%
  tripotent neurospheres: 20±3%
[3]; control 29±3%
  bipotent neurospheres: 31±4%
[3]; control 55±6%
  unipotent neurospheres: 49±1%
[4]
  times more neurospheres from CDy5bright cells than from CDy5dim cells: more than 10 times
[5]; [7]
  bi-potent: 26±1%
  tri-potent: 44±3%
  uni-potent: 30±4%
[5]; [8]
  bi-potent: 22±1%
  tri-potent: 31±7%
  uni-potent: 47±6%

## COc1ccc(/C=C/C(=O)c2c(-c3ccccc3)c3ccccc3[nH]c2=O)cc1 [Ceranib-2]
[6]
  IC50: 780 nM

## CCCCCCNC(=O)n1cc(F)c(=O)[nH]c1=O [Carmofur]
[6]; Mus musculus
  IC50: 920 nM
